Results taken from patent US5102888A, “Quinoline type mevalonolactones useful for treating hyperlipidemia and related diseases” (Nissan Chemical Industries Ltd., priority 1987, dated 1992).
Structures can show the parent of a compound that is named as a salt.

Target: cholesterol biosynthesis wherein HMG-CoA reductase acts as a rate limiting enzyme (rat liver microsome and sup fraction)
Assay: Test A: Inhibition of Cholesterol Biosynthesis from Acetate In Vitro
Assay type: biochemical, male Wistar rat
Settings: for IC50: [2-14C]sodium acetate incorporation, rat liver microsome + sup fraction, 2 hours, 37° C., read-out: I50 (Inhibitory activities by Test A); for Relative activities by Test A: relative to activity of CS-514 evaluated to be 1
Procedure: Enzyme solution was prepared from liver of male Wistar rat billialy cannulated and discharged bile for over 24 hours. Liver was cut out at mid-dark and microsome and supernatant fraction which was precipitable with 40-80% of saturation of ammonium sulfate (sup fraction) were prepared from liver homogenate according to the modified method of Knauss et. al.; Kuroda, M., et. al., Biochim. Biophys. Acta, 489, 119 (1977). For assay of cholesterol biosynthesis, microsome (0.1 mg protein) and sup fraction (1.0 mg protein) were incubated for 2 hours at 37° C. in 200 μl of the reaction mixture containing ATP; 1 mM, Glutathione; 6 mM, Glucose-1-phosphate; 10 mM, NAD; 0.25 mM, NADP; 0.25 mM, CoA; 0.04 mM and 0.2 mM [2-^14 C]sodium acetate (0.2 μCi) with 4 μl of test compound solution dissolved in water or dimethyl sulfoxide. To stop reaction and saponify, 1 ml of 15% EtOH--KOH was added to the reactions and heated at 75° C. for 1 hour. […] Inhibitory activity of compounds was indicated with IC50.

Row | Structure (SMILES) | IC50 | Relative activities by Test A
1 | CCC(C)C(=O)OC1CC(O)C=C2C=CC(C)C(CCC(O)CC(O)CC(=O)O)C21 (stereo not shown) [CS-514, reference compound] | 9 nM | 
2 | CC(C)c1nc2c(Cl)cc(Cl)cc2c(-c2ccc(F)cc2)c1/C=C/C(O)CC(O)CC(=O)O (stereo not shown) [Compound I-522] |  | 0.76
3 | CCOC(=O)CC(O)CC(O)/C=C/c1c(CC)nc2ccccc2c1-c1ccc(F)cc1 (stereo not shown) [Compound I-117] |  | 0.37
4 | CC(C)c1nc2ccccc2c(-c2ccc(F)cc2)c1/C=C/C(O)CC(O)CC(=O)O (stereo not shown) [Compound I-51, Sodium salt of (E)-3,5-dihydroxy-7-[4'-(4"-fluorophenyl)-2'-(1"-methylethyl)-quinolin-3'-yl]-hept-6-enoic acid] | 10 nM | 
